Source: patent US5229381A, “Substituted azetidinones as anti-inflammatory and antidegenerative agents” (Merck & Co., Inc., priority 1991, dated 1993)

Each compound was assayed against T1, human polymorphonuclear leukocyte elastase (Homo sapiens, UniProt P08246) (assay: Inhibition of human polymorphonuclear leukocyte (granulocyte) elastase via hydrolysis of Boc-AAPAN or Boc-AAPVN). Settings: Table I; read-out: Ki, concentration of the inhibitor giving 50% of the control enzyme activity.
T1 construct: Crude extract of human polymorphonuclear leukocytes (PMN) containing elastase activity; endogenous in cells; host or cells: human polymorphonuclear leukocytes (crude extract)
T1 sequence (P08246 30-247 limits assumed): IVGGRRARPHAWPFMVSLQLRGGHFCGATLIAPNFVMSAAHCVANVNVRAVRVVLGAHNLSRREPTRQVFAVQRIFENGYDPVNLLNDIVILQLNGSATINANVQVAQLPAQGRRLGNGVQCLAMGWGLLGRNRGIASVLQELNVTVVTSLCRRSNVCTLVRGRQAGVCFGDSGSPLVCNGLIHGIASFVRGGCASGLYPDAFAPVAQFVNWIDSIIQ
Type: biochemical
Method: Enzyme Assays for the Inhibition of Human Polymorphonuclear Leukocyte Elastase Via Hydrolysis of N-t-Boc-alanyl-alanyl-prolylalanine-p-nitroanilide (Boc-AAPAN) or N-t-Boc-alanyl-prolylvaline-p-nitroanilide (Boc-AAPVN) Reagent:
0.05M TES (N-tris[hydroxymethyl]methyl-2-amino-ethanesulfonic acid) Buffer, pH 7.5.
0.2 mM Boc-AAPAN or Boc-AAPVN.
To prepare substrate, the solid was first dissolved in 10.0 ml DMSO. Buffer at pH 7.5 was then added to a final volume of 100 ml.
Crude extract of human polymorphonuclear leukocytes (PMN) containing elastase activity.
Inhibitors (azetidinones) to be tested dissolved in DMSO just before use.
To 1.0 ml of 0.2 mM Boc-AAPAN in a cuvette, 0.01-0.1 ml of DMSO with or without inhibitor was added. After mixing, a measurement was taken at 410 mμ to detect any spontaneous hydrolysis due to presence of test compound. 0.05 Milliliters of PMN extract was then added and the ΔOD/min at 410 mμ was measured and recorded. Beckman model 35 spectrophotometer was used.
Results were also expressed as Ki, the micromolar concentration of the inhibitor (μM) giving 50% of the control enzyme activity; or as ^k obs/I which is the second order rate constant in per mole per second for inactivation of the enzyme.
The elastase activity in the crude PMN extract may vary from one preparation to another. A control of each new batch is run, and the volume added in the assay procedure is adjusted according to activity.

Row | SMILES | Ki [µM]
1 | CCC1C(=O)N(C(C)=O)C1OC(=O)CCC(=O)O (stereo not drawn) | 2
2 | CCC1C(=O)N(C(=O)CCC(=O)O)C1OC(C)=O (stereo not drawn) | 1.43
3 | CC[C@H]1C(=O)N(S(=O)(=O)c2ccc(C)cc2)[C@H]1C(=O)N1CCCC1 (relative stereo) | 27.7
4 | CC[C@H]1C(=O)N(C(C)=O)[C@@H]1Oc1ccc(C(=O)O)cc1 (relative stereo) | 3.4
5 | CC[C@H]1C(=O)N(C(=O)NC)[C@@H]1Oc1ccc(C(=O)O)cc1 (relative stereo) | 16.5
6 | CCOC(=O)N1C(=O)[C@H](CC)[C@H]1Oc1ccc(C(=O)O)cc1 (relative stereo) | 2.1

Same assay, conditions: pH 7.5, Table II, (per mole per second); read-out: kobs/I, second order rate constant of inactivation of the enzyme

Row | kinact/KI [M⁻¹ s⁻¹] | SMILES
7 | 200 | CCC1(CC)C(=O)N(C(=O)NCc2ccccc2)C1n1ccnc1 (stereo not drawn)
8 | 5560 | CCC1(CC)C(=O)N(C(=O)NCc2ccccc2)C1Oc1ccc2cc(C(=O)O)ccc2c1 (stereo not drawn)
9 | 3050 | CCC1(CC)C(=O)N(C(=O)NCc2ccccc2)C1Oc1cccc(C(=O)NCc2ccccc2)c1 (stereo not drawn)
10 | 1760 | CCC1(CC)C(=O)N(C(=O)NCc2ccccc2)C1Oc1cccc(C(=O)O)c1 (stereo not drawn)
11 | 3180 | CCC1(CC)C(=O)N(C(=O)NCc2ccccc2)C1Oc1ccc(CC(=O)O)cc1 (stereo not drawn)
12 | 2810 | CCC1(CC)C(=O)N(C(=O)NCc2ccc(C(=O)O)cc2)C1Oc1ccc(C(C)=O)cc1 (stereo not drawn)
13 | 5920 | CCC1(CC)C(=O)N(C(=O)NCc2ccc(C(C)=O)cc2)C1Oc1ccc(C(C)=O)cc1 (stereo not drawn)
14 | 13200 | CCC1(CC)C(=O)N(C(=O)NCc2cc3ccccc3o2)C1Oc1ccc(C(=O)O)cc1 (stereo not drawn)
15 | 5220 | CCC1(CC)C(=O)N(C(=O)NCc2ccco2)C1Oc1ccc(C(=O)O)cc1 (stereo not drawn)
16 | 4920 | CCC1(CC)C(=O)N(C(=O)NCc2cccs2)C1Oc1ccc(C(=O)O)cc1 (stereo not drawn)
17 | 3420 | CCC1(CC)C(=O)N(C(=O)NCc2ccc(Cl)cc2)C1Oc1ccc(C(=O)O)cc1 (stereo not drawn)
18 | 12000 | CCC1(CC)C(=O)N(C(=O)NCc2ccc(Oc3ccccc3)cc2)C1Oc1ccc(C(=O)O)cc1 (stereo not drawn)
19 | 36200 | CCC1(CC)C(=O)N(C(=O)NCc2ccc3cc4ccccc4cc3c2)C1Oc1ccc(C(=O)O)cc1 (stereo not drawn)
20 | 5160 | CCC1(CC)C(=O)N(C(=O)NCc2ccc(OC)cc2)C1Oc1ccc(C(=O)O)cc1 (stereo not drawn)
21 | 20800 | CCC1(CC)C(=O)N(C(=O)NC(C)c2ccc(C3CCCCC3)c(Cl)c2)C1Oc1ccc(C(=O)O)cc1 (stereo not drawn)
22 | 4200 | CCC1(CC)C(=O)N(C(=O)NCCCCC(O)c2ccccc2)C1Oc1ccc(C(=O)O)cc1 (stereo not drawn)

Row | kinact/KI [M⁻¹ s⁻¹] | SMILES
23 | 8300 | CCCCCCCCCNC(=O)N1C(=O)C(CC)(CC)C1Oc1ccc(C(=O)O)cc1 (stereo not drawn)
24 | 107000 | CCC1(CC)C(=O)N(C(=O)NCc2ccc(-c3ccccc3)cc2)C1Oc1ccc(C(=O)CCC(=O)O)cc1 (stereo not drawn)
25 | 3500 | CCC1(CC)C(=O)N(C(=O)NCc2ccccc2)C1Oc1ccc(NC(C)=O)cc1 (stereo not drawn)
26 | 1700 | CCC1(CC)C(=O)N(C(=O)NCc2ccccc2)C1Oc1ccc([N+](C)(C)C)cc1 (stereo not drawn)
27 | 1500 | CCC1(CC)C(=O)N(C(=O)NCc2ccc(C(=O)O)cc2)C1Oc1ccccc1 (stereo not drawn)
28 | 51000 | CCCC1(CC)C(=O)N(C(=O)NCc2ccc3ccccc3c2)C1Oc1ccc(C(=O)O)cc1 (stereo not drawn)
29 | 55000 | CCCC1(CC)C(=O)N(C(=O)NCc2cccc(C(F)(F)F)c2)C1Oc1ccc(C(=O)O)cc1 (stereo not drawn)
30 | 50000 | CCC1(COC)C(=O)N(C(=O)NCc2ccc3ccccc3c2)C1Oc1ccc(C(=O)O)cc1 (stereo not drawn)
31 | 1900 | CCC1(COC)C(=O)N(C(=O)NCc2ccccc2)C1Oc1ccc(C(=O)O)cc1 (stereo not drawn)
32 | 75000 | CCCC(NC(=O)N1C(=O)C(CC)(COC)C1Oc1ccc(C(=O)O)cc1)c1ccccc1 (stereo not drawn)
33 | 12500 | CCC1(C)C(=O)N(C(=O)NCc2ccccc2)C1Oc1ccc(C(N)=O)cc1 (stereo not drawn)
34 | 11300 | CCC1(C)C(=O)N(C(=O)NCc2ccc(OC)c(OC)c2)C1Oc1ccc(C(=O)O)cc1 (stereo not drawn)
35 | 13600 | CCC1C(=O)N(C(=O)Nc2ccc(C(=O)O)cc2)C1Oc1ccc(C(=O)O)cc1 (stereo not drawn)
36 | 5400 | C=CCC1C(=O)N(C(=O)NCc2ccccc2)C1Oc1ccc(C(=O)O)cc1 (stereo not drawn)
37 | 1970 | C=CCC1(CC)C(=O)N(C(=O)NCc2ccccc2)C1Oc1ccc(C(=O)O)cc1 (stereo not drawn)
38 | 1900 | O=C(O)c1ccc(OC2N(C(=O)NCc3ccccc3)C(=O)C23CCCC3)cc1 (stereo not drawn)

The remaining lines, values behind:

Row | SMILES | kinact/KI [M⁻¹ s⁻¹]
39 | CCC1(CC)C(=O)N(C(=O)NCc2ccccc2)C1Oc1ccccc1CO (stereo not drawn) | 2960
40 | CCC1(CC)C(=O)N(C(=O)NCc2ccc(N(C)C)cc2)C1Oc1ccc(C(=O)O)cc1 (stereo not drawn) | 9980
41 | CCC1(CC)C(=O)N(C(=O)NCC2CCCCC2)C1Oc1ccc(C(=O)O)cc1 (stereo not drawn) | 1420
42 | CCC1(CC)C(=O)N(C(=O)NCc2ccc(C)cc2)C1Oc1ccc(C(=O)O)cc1 (stereo not drawn) | 3960
43 | CCC1(CC)C(=O)N(C(=O)NCc2ccc(F)cc2)C1Oc1ccc(C(=O)O)cc1 (stereo not drawn) | 2340
44 | CCC1(CC)C(=O)N(C(=O)NCc2ccc([N+](=O)[O-])cc2)C1Oc1ccc(C(=O)O)cc1 (stereo not drawn) | 5080
45 | CCC1(CC)C(=O)N(C(=O)NCc2ccc(-c3ccccc3)cc2)C1Oc1ccc(C(=O)O)cc1 (stereo not drawn) | 37000
46 | CCC1(CC)C(=O)N(C(=O)NCc2ccc(C(=O)NS(=O)(=O)c3ccc(Cl)cc3)cc2)C1Oc1ccc(C(=O)O)cc1 (stereo not drawn) | 1730
47 | CCC1(CC)C(=O)N(C(=O)NC(C)c2cccc3ccccc23)C1Oc1ccc(C(=O)O)cc1 (stereo not drawn) | 14100
48 | CCC1(CC)C(=O)N(C(=O)NCCCc2ccccc2)C1Oc1ccc(C(=O)O)cc1 (stereo not drawn) | 4540
49 | CCC1(CC)C(=O)N(C(=O)NCCCCOc2ccccc2)C1Oc1ccc(C(=O)O)cc1 (stereo not drawn) | 3450
50 | CCC1(CC)C(=O)N(C(=O)NCCCCc2ccccc2)C1Oc1ccc(C(=O)O)cc1 (stereo not drawn) | 10900
51 | CCC1(CC)C(=O)N(C(=O)NCc2ccccc2)C1Oc1ccc(NC(=O)CCC(=O)O)cc1 (stereo not drawn) | 2570
52 | CCC1(CC)C(=O)N(C(=O)NCc2ccccc2)C1Oc1ccc([N+](=O)[O-])cc1 (stereo not drawn) | 6850
53 | CCCC1(CC)C(=O)N(C(=O)NC(CC)c2ccccc2)C1Oc1ccc(CC(=O)O)cc1 (stereo not drawn) | 54000
54 | CCCC1(CC)C(=O)N(C(=O)NC(CC)c2ccccc2)C1Oc1ccc(C(=O)CCC(=O)O)cc1 (stereo not drawn) | 87000
55 | CCC1(COC)C(=O)N(C(=O)NCc2ccc3c(c2)OCO3)C1Oc1ccc(C(=O)O)cc1 (stereo not drawn) | 17000
56 | CCC1(COC)C(=O)N(C(=O)NCc2ccc(-c3ccccc3)cc2)C1Oc1ccc(C(=O)O)cc1 (stereo not drawn) | 44500
57 | CCC1(C)C(=O)N(C(=O)NCc2cc(C)c(C(=O)O)c(C)c2)C1Oc1ccc(C(N)=O)cc1 (stereo not drawn) | 30000
58 | CCC1(C)C(=O)N(C(=O)NCC(C)c2ccccc2)C1Oc1ccc(C(=O)O)cc1 (stereo not drawn) | 2550
59 | CCC1(C)C(=O)N(C(=O)NCc2cc(C)c(C(=O)O)c(C)c2)C1Oc1ccc(C(=O)O)cc1 (stereo not drawn) | 5600
60 | CCC1(C)C(=O)N(C(=O)NC(C)c2ccccc2)C1Oc1ccc(C(=O)O)cc1 (stereo not drawn) | 15000
61 | CCC(NC(=O)N1C(=O)C(C)(CC)C1Oc1ccc(C(=O)O)cc1)c1ccsc1 (stereo not drawn) | 78800
62 | CCC(NC(=O)N1C(=O)C(C)(CC)C1Oc1ccc(C(=O)O)cc1)c1ccc2occc2c1 (stereo not drawn) | 750000
63 | CCCC1(CC)C(=O)N(C(=O)NCc2ccccc2)C1Oc1ccc(C(=O)O)cc1 (stereo not drawn) | 3280
64 | CCCC1(CCC)C(=O)N(C(=O)NCc2ccccc2)C1Oc1ccc(C(=O)O)cc1 (stereo not drawn) | 2500
65 | CCC1(Cc2ccccc2)C(=O)N(C(=O)NCc2ccccc2)C1Oc1ccc(C(=O)O)cc1 (stereo not drawn) | 87

Same assay, conditions: pH 7.5, Table III, (per mole per second); read-out: kobs/I, second order rate constant of inactivation of the enzyme

Row | kinact/KI [M⁻¹ s⁻¹] | SMILES
66 | 9250 | CCC1(CC)C(=O)N(C(=O)NCc2ccc(C)cc2)C1Oc1ccc(C(=O)O)c(O)c1 (stereo not drawn)
67 | 20600 | CCC1(CC)C(=O)N(C(=O)NCc2ccc(C)c(C)c2)C1Oc1ccc(C(=O)O)cc1 (stereo not drawn)
68 | 62900 | CCC1(CC)C(=O)N(C(=O)NCc2ccc3c(c2)CCCC3)C1Oc1ccc(C(=O)O)cc1 (stereo not drawn)
69 | 8030 | CCC1(CC)C(=O)N(C(=O)NCc2ccc(Cc3ccccc3)cc2)C1Oc1ccc(C(=O)O)cc1 (stereo not drawn)
70 | 12000 | CCC1(CC)C(=O)N(C(=O)NCc2ccc(OCc3ccccc3)cc2)C1Oc1ccc(C(=O)O)cc1 (stereo not drawn)
71 | 14700 | CCC1(CC)C(=O)N(C(=O)NCc2ccc(-c3cccc(C(=O)O)c3)cc2)C1Oc1ccc(C(=O)O)cc1 (stereo not drawn)
72 | 116 | CCC1(CC)C(=O)N(C(=O)NCc2ccccc2)C1Sc1nc[nH]n1 (stereo not drawn)
73 | 3660 | CCC1(CC)C(=O)N(C(=O)NCc2ccccc2)C1Sc1nnnn1C (stereo not drawn)

Continued, compound first:

Row | SMILES | kinact/KI [M⁻¹ s⁻¹]
74 | CCC1(CC)C(=O)N(C(=O)NCc2ccc(-c3ccccc3)cc2)C1Oc1ccc(CC(=O)O)cc1 (stereo not drawn) | 28900
75 | CCC1(CC)C(=O)N(C(=O)NCc2ccc(C)c(C)c2)C1Oc1ccc(C(O)C(=O)O)cc1 (stereo not drawn) | 17600
76 | CCC1(CC)C(=O)N(C(=O)NCc2ccc(S(C)(=O)=O)cc2)C1Oc1ccc(C(=O)O)cc1 (stereo not drawn) | 3350
77 | CCC1(CC)C(=O)N(C(=O)NCc2ccc(OC)c(C)c2)C1Oc1ccc(C(=O)O)cc1 (stereo not drawn) | 13100
78 | CCC1(CC)C(=O)N(C(=O)NCc2ccc3cc(C(=O)O)ccc3c2)C1Oc1ccc(C(N)=O)cc1 (stereo not drawn) | 40600

Same assay, conditions: pH 7.5, Table IV, (per mole per second); read-out: kobs/I, second order rate constant of inactivation of the enzyme

Row | kinact/KI [M⁻¹ s⁻¹] | SMILES
79 | 4380 | CCC1(C)C(=O)N(C(=O)N2CCc3ccccc3C2)C1Oc1ccc(C(=O)O)cc1 (stereo not drawn)
80 | 5980 | CCC1C(=O)N(C(=O)N(Cc2ccccc2)Cc2ccccc2)C1Oc1ccc(C(=O)O)cc1 (stereo not drawn)
81 | 227000 | CCOC(=O)c1ccc(COC(=O)N2C(=O)C(CC)C2Oc2ccc(C(=O)O)cc2)cc1 (stereo not drawn)

The remaining lines, values behind:

Row | SMILES | kinact/KI [M⁻¹ s⁻¹]
82 | CCC[C@@H](NC(=O)N1C(=O)C(CC)(CC)C1Oc1ccc(CC(=O)O)cc1)c1ccc2occc2c1 (stereo partly drawn) | 847000
83 | CCOC(=O)c1ccc(COC(=O)N2C(=O)C(CC)(CC)C2Oc2ccc(C(=O)O)cc2)cc1 (stereo not drawn) | 14300
84 | CCC1C(=O)N(C(=O)N(CC)Cc2ccccc2)C1Oc1ccc(C(=O)O)cc1 (stereo not drawn) | 83000

Same assay, conditions: pH 7.5, read-out: kobs/I, second order rate constant of inactivation of the enzyme

Row | SMILES | kinact/KI [M⁻¹ s⁻¹]
85 | CCCC1(C)C(=O)N(C(=O)NCc2ccccc2)C1Oc1ccc(C(=O)O)cc1 (stereo not drawn) | 1900
86 | CCC1C(=O)N(C(C)=O)C1OC(=O)CCC(=O)O (stereo not drawn) | 4510
87 | CCC1C(=O)N(C(=O)CCC(=O)O)C1OC(C)=O (stereo not drawn) | 2250
88 | CC[C@H]1C(=O)N(S(=O)(=O)c2ccc(C)cc2)[C@H]1C(=O)N1CCCC1 (relative stereo) | 541
89 | CC[C@H]1C(=O)N(C(C)=O)[C@@H]1Oc1ccc(C(=O)O)cc1 (relative stereo) | 8730
90 | CCOC(=O)N1C(=O)[C@H](CC)[C@H]1Oc1ccc(C(=O)O)cc1 (relative stereo) | 8680
